According to publication PMC10354055, “An optimized Nurr1 agonist provides disease-modifying effects in Parkinson’s disease models” (Nature Communications, 2023):
Several values for one entry are separate records, joined by “and”; a condition that tells them apart may be missing. Identical values can stand only once.

What was measured:
N27-A cells = assay: Mitochondrial activity assay, Seahorse XFp, N27-A cells; type: cell-based, rat; set-up: Seahorse time trace (OCR): unit not given here; conditions: for OCR changes after FCCP injection: MPP+ co-treatment, individual replicates (Supplementary Figure S1o); for Seahorse time trace (OCR) / ATP turnover: replicates; for ATP turnover: Fig. S1n, with MPP+
Method: Mitochondrial activity was measured using the Seahorse XFp analyzer (Agilent Technologies) according to the manufacturer’s instruction. Briefly, cells were plated onto wells of a XFp cell culture miniplate and incubated in a 37 °C incubator overnight. The assay was performed after cells were equilibrated for 1 h in XF assay medium supplemented with 10 mM D-glucose, 5 mM sodium pyruvate, and 2 mM glutamax in a non-CO2 incubator. Mitochondrial activity was monitored through sequential injections of 1 μM oligomycin, 2 μM carbonyl cyanide-4 (trifluoromethoxy) phenylhydrazone (FCCP) and 0.5 μM rotenone/antimycin A to calculate basal respiration (= baseline oxygen consumption rate (OCR)−rotenone/antimycin A OCR), maximal respiration (= FCCP OCR−rotenone/antimycin A OCR), ATP turnover (= baseline OCR−oligomycin OCR), and OCR changes after FCCP injection (= FCCP OCR−oligomycin OCR). Each plotted value was normalized to total protein quantified using a Bradford protein assay (Bio-Rad) and analyzed using the Seahorse WAVE Desktop software (Agilent Technologies).

MN9D cells = assay: Dopaminergic gene expression (TH, DAT, AADC, VMAT2, c-Ret), qRT-PCR, MN9D cells with MPP+; type: cell-based, mouse; conditions: MN9D, decreased by MPP+
Method: (§1) Total RNA was extracted using the GeneJET RNA Purification Kit (Thermo Fisher Scientific) and 100 ng of RNA was subjected to cDNA synthesis using Invitrogen Superscript cDNA Synthesis Kit (Invitrogen) according to the manufacturer’s protocol. qRT-PCR was performed using a CFX Connect Real-Time System (Bio-Rad) in a 20 μl volume mixture containing 2X SsoAdvanced Universal SYBR Green Supermix (Bio-Rad), 100 ng/μl of forward and reverse primers, and 1 μl of cDNA sample. Gene expression levels were quantified by the 2^∆∆CT method (Ct of target gene—Ct of glyceraldehyde-3-phosphate dehydrogenase (GAPDH). The following primers were used for qRT-PCR: TH forward: 5′-[…]-3′, reverse: 5′-[…]-3′; DAT forward: 5′-[…]-3′, reverse: 5′-[…]-3′; AADC forward: 5′-[…]-3′, reverse: 5′-[…]-3′; VMAT2 forward: 5′-[…]-3′, reverse: 5′-[…]-3′; c-Ret forward: 5′-[…]-3′, reverse: 5′-[…]-3′; TNFα forward: 5′-[…]-3′; reverse: 5′-[…]-3′; GAPDH, forward 5′-[…]-3′, reverse 5′-[…]-3′.

[1] = tested on: mouse ventral mesencephalic (VM) primary cells; assay: Dopaminergic gene expression, qRT-PCR, primary VM cells with 6-OHDA; type: cell-based; conditions: VM primary cells, decreased by 6-OHDA; CQ 20 µM, 4A7C-301 0.5 µM
Method: as §1
Briefly, dissected VM brain tissues were collected in ice-cold Dulbecco’s phosphate-buffered saline (DPBS) and then mechanically dissociated using pipettes. Thereafter, dissociated tissues were incubated in 0.05 % Trypsin-EDTA (Invitrogen) for 5 min at 37 °C. The cell suspension was plated onto glass coverslips in 48-well plates pre-coated with […] poly-L-ornithine, 5 μg/ml Fibronectin or 1 μg/ml Laminin at a density of 2.0 × 10^5 cells/cm^2 in differentiation medium (1% heat-inactivated FBS, 2 mM L-glutamine, 50X B27 supplement, 100 μM ascorbic acid and 2 μg/ml bFGF in Neurobasal media).

HeLa cells = assay: Autophagic flux, Western blot LC3B and p62, HeLa cells; type: cell-based; conditions: HeLa, LC3B-II and p62
Method: Experiments were confirmed by duplicate measurements of the same sample. Quantification of immunoreactive bands was performed using ImageJ software (NIH, Bethesda, MD, USA) and expressed as a relative ratio against β-actin.
The band intensities were quantified using ImageJ and normalized against β-actin.

CCN(CC)CCCC(C)Nc1ccnc2cc(Cl)ccc12 (stereo not shown) [CQ, chloroquine]
OXPHOS capacity reduced by MPP+ (in words) (N27-A cells; CQ 100 µM, 4A7C-301 1 µM): efficiently restored | OCR changes after FCCP injection (N27-A cells; Control N27-A cells): 8.55 pmol/min/µg protein and 7.31 pmol/min/µg protein and 2.32 pmol/min/µg protein and 23.52 pmol/min/µg protein | Seahorse time trace (OCR) (N27-A cells; Fig. S1j/k, Control + MPP+, time 2 min): 3.66 and 2.51 and 27.76 | Seahorse time trace (OCR) (N27-A cells; Fig. S1j/k, Control + MPP+, time 8 min): 3.46 and 2.01 and 20.11 | Seahorse time trace (OCR) (N27-A cells; Fig. S1j/k, Control + MPP+, time 15 min): 2.32 and 1.98 and 22.16 and 9.29 | Seahorse time trace (OCR) (N27-A cells; Fig. S1j/k, Control + MPP+, time 21 min): 0.27 and 19.75 and 5.17 | Seahorse time trace (OCR) (N27-A cells; Fig. S1j/k, Control + MPP+, time 28 min): 0.58 and 1.26 and 17.08 and 5.33 | Seahorse time trace (OCR) (N27-A cells; Fig. S1j/k, Control + MPP+, time 34 min): 0.71 and 18.32 and 7.16 | Seahorse time trace (OCR) (N27-A cells; Fig. S1j/k, Control + MPP+, time 41 min): 7.58 and 3.41 and 40.6 and 13.72 | Seahorse time trace (OCR) (N27-A cells; Fig. S1j/k, Control + MPP+, time 47 min): 6.82 and 3.28 and 39.31 | Seahorse time trace (OCR) (N27-A cells; Fig. S1j/k, Control + MPP+, time 54 min): 6.13 and 3.21 and 37.92 and 10.02 | Seahorse time trace (OCR) (N27-A cells; Fig. S1j/k, Control + MPP+, time 61 min): 0.03 and 1.24 and 16.5 and 4.04 | Seahorse time trace (OCR) (N27-A cells; Fig. S1j/k, Control + MPP+, time 67 min): 0.55 and 1.35 and 12.69 and 5.31 | Seahorse time trace (OCR) (N27-A cells; Fig. S1j/k, Control + MPP+, time 74 min): 1.39 and 17 and 5.99 | Seahorse time trace (OCR) (N27-A cells; Fig. S1j, Nurr1 OE + MPP+, time 2 min): 26.25 and 15.29 | Seahorse time trace (OCR) (N27-A cells; Fig. S1j, Nurr1 OE + MPP+, time 8 min): 18.52 and 15.98 | Seahorse time trace (OCR) (N27-A cells; Fig. S1j, Nurr1 OE + MPP+, time 15 min): 20.57 and 30.55 and 13.93 | Seahorse time trace (OCR) (N27-A cells; Fig. S1j, Nurr1 OE + MPP+, time 21 min): 5.95 and 6.99 and 4.75 and 6.7 | Seahorse time trace (OCR) (N27-A cells; Fig. S1j, Nurr1 OE + MPP+, time 28 min): 5.18 and 6.25 and 5.44 and 7.19 | Seahorse time trace (OCR) (N27-A cells; Fig. S1j, Nurr1 OE + MPP+, time 34 min): 4.78 and 5.8 and 5.34 and 7.96 | Seahorse time trace (OCR) (N27-A cells; Fig. S1j, Nurr1 OE + MPP+, time 41 min): 28.78 and 44.27 and 30.42 | Seahorse time trace (OCR) (N27-A cells; Fig. S1j, Nurr1 OE + MPP+, time 47 min): 28.4 and 36.09 and 14.17 | Seahorse time trace (OCR) (N27-A cells; Fig. S1j, Nurr1 OE + MPP+, time 54 min): 26.28 and 35.06 and 18.57 and 28.22 | Seahorse time trace (OCR) (N27-A cells; Fig. S1j, Nurr1 OE + MPP+, time 61 min): 4.76 and 5.21 and 0.65 and 4.3 | Seahorse time trace (OCR) (N27-A cells; Fig. S1j, Nurr1 OE + MPP+, time 67 min): 4.21 and 5.44 and 0.96 and 4.79 | Seahorse time trace (OCR) (N27-A cells; Fig. S1j, Nurr1 OE + MPP+, time 74 min): 4.26 and 6.26 and 5.01 | Seahorse time trace (OCR) (N27-A cells; Fig. S1k, Nurr1 KD + MPP+, time 2 min): 19.09 and 7.42 and 5.75 and 10.38 | Seahorse time trace (OCR) (N27-A cells; Fig. S1k, Nurr1 KD + MPP+, time 8 min): 18.47 and 7.53 and 4.86 and 8.38 | Seahorse time trace (OCR) (N27-A cells; Fig. S1k, Nurr1 KD + MPP+, time 15 min): 15.57 and 7.6 and 4.41 and 7.39 | Seahorse time trace (OCR) (N27-A cells; Fig. S1k, Nurr1 KD + MPP+, time 21 min): 1.43 and 1.21 | Seahorse time trace (OCR) (N27-A cells; Fig. S1k, Nurr1 KD + MPP+, time 28 min): 13.44 and 8.97 and 1.24 | Seahorse time trace (OCR) (N27-A cells; Fig. S1k, Nurr1 KD + MPP+, time 34 min): 8.6 | ATP turnover (N27-A cells; Control cells): 6.76 pmol/min/µg protein and 3.39 pmol/min/µg protein and 1.42 pmol/min/µg protein and 10.68 pmol/min/µg protein | ATP turnover (N27-A cells; Nurr1 KD cells): 7.63 pmol/min/µg protein and -1 pmol/min/µg protein and 4.86 pmol/min/µg protein and 9.17 pmol/min/µg protein | ATP turnover (N27-A cells; Nurr1 OE cells): 19.32 pmol/min/µg protein and 24.75 pmol/min/µg protein and 13.77 pmol/min/µg protein and 18.27 pmol/min/µg protein | OCR changes after FCCP injection (N27-A cells; Nurr1 KD N27-A cells): 12.59 pmol/min/µg protein and 4.43 pmol/min/µg protein and 9.84 pmol/min/µg protein and 17.76 pmol/min/µg protein | OCR changes after FCCP injection (N27-A cells; Nurr1 OE N27-A cells): 24 pmol/min/µg protein and 37.47 pmol/min/µg protein and 12.22 pmol/min/µg protein and 23.73 pmol/min/µg protein | dopaminergic gene expression (in words) (MN9D cells): significantly rescued | dopaminergic gene expression (in words) [1]: significantly rescued | autophagic flux (in words) (HeLa cells): failed to terminate
